{"source": "patent US20100049117A1", "about": "“Microporator for Porating a Biological Membrane and Integrated Permeant Administering System” (PANTEC BIOSOLUTIONS AG, priority 2005, published 2010)", "test": "Serum concentration of drug over time after application onto microporated skin (FIG. 10a, 10b)", "assay_type": "in vivo", "conditions": "for period of time of maximal serum concentration: transdermal", "from_the_text": "FIG. 10a, 10b show the serum concentration of a drug over time, with the same amount of drug but different permeation surfaces.\nThe drug is entering the permeation surface by passive diffusion. The amount of drug entering the permeation surface is mainly determined by the permeation surface A(t) over time. Therefore, the serum concentration as a function of time can be determined by an appropriate poration of the skin 1 with an initial microporation.\nFIG. 10a to 10b show the administration of the same drug, for example 100 mg acetylsalicylic acid, the drug being arranged on the skin 1 as disclosed in FIG. 3c. Depending on the permeation surface A(t) as a function of time, the level of the serum concentration as well as the time period within which the drug is released, can be predescribed. In FIG. 10a the permeation surface A(t), not shown in detail, is chosen such that the maximal serum concentration is about 25 g/l over a short period of time of about two hours. […] A further advantage is that the same amount of drug, e.g. the same patch, applied onto the skin 1, causes a different serum concentration, depending only on the function of the permeation surface A over time. This allows administering the same drug in different ways. This also allows administering the same drug in an individual way, in that the initial permeation surface is created depending on individual parameters of the person the drug is applied to.", "data": [{"smiles": "CC(=O)Oc1ccccc1C(=O)O", "note": "[acetylsalicylic acid]", "values": [{"measurement": "period of time of maximal serum concentration", "setting": "FIG. 10a, 100 mg", "result": "about two"}, {"measurement": "maximal serum concentration", "setting": "FIG. 10b, 100 mg, fast application (turbo), patch on microporated skin (transdermal)", "result": "about 30 g/l"}, {"measurement": "period of time of maximal serum concentration", "setting": "FIG. 10b, 100 mg, fast application (turbo)", "result": "about two"}, {"measurement": "course of serum concentration", "setting": "oral application OA", "result": "heavy fluctuation"}, {"measurement": "course of serum concentration", "setting": "transdermal application TD", "result": "about constant value"}]}]}
